Test results published in patent publication US20190048016A1, “SUBSTITUTED BRIDGED UREA ANALOGS AS SIRTUIN MODULATORS” (GlaxoSmithKline Intellectual Property(No.2)Limited, priority 2014, published 2019).
Structures can show the parent of a compound that is named as a salt.

Molecular target: T1, SIRT1 (Homo sapiens, UniProt Q96EB6)
T1 sequence (Q96EB6 1-747): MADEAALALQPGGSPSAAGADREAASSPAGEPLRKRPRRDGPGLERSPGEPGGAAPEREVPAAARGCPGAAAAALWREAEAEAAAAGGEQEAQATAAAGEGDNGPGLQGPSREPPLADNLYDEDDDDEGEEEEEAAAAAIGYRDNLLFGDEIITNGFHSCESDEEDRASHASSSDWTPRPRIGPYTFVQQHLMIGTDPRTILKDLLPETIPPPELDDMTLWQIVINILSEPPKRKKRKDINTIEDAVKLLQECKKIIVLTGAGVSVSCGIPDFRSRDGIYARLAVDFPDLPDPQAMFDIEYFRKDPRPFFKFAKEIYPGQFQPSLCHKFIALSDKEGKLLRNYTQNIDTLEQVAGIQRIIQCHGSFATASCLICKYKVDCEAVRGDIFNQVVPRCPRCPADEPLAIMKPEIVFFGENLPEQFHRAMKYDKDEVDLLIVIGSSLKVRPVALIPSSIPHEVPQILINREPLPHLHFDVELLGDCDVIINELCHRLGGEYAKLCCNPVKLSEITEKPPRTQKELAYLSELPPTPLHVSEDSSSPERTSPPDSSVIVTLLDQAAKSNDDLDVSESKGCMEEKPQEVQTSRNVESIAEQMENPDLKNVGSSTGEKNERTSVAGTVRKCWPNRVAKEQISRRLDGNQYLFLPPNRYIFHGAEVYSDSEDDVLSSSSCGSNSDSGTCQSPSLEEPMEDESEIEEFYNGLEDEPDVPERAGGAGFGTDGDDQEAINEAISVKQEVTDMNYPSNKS
Assay: Trp mass spectrometry assay of SIRT1 activation (deacetylation of Ac-R-H-K-K(Ac)-W-NH2 peptide, OAADPR formation)
Assay type: biochemical
Conditions: Trp peptide 0.5 μM, 120 μM βNAD+, 10 nM SIRT1, 25 min, 25° C.; for Emax: 25 min, read-out: TRP MAX RESP (percent maximum fold activation relative to control = 100%)
Text: Mass spectrometry based assays were used to identify modulators of SIRT1 activity. The TAMRA based assay utilized a peptide having 20 amino acid residues as follows: Ac-EE-K(biotin)-[…](Ac)NleSTEG-K(5TMR)-EE-NH2 (SEQ ID NO: 1), wherein K(Ac) is an acetylated lysine residue and Nle is a norleucine. The peptide was labeled with the fluorophore 5TMR (excitation 540 nm/emission 580 nm) at the C-terminus. The sequence of the peptide substrate was based on p53 with several modifications. In addition, the methionine residue naturally present in the sequence was replaced with the norleucine because the methionine may be susceptible to oxidation during synthesis and purification. The Trp based assay utilized a peptide having an amino acid residues as follows: Ac-R-H-K-K(Ac)-W-NH2 (SEQ ID NO: 2).
The Trp mass spectrometry assay was conducted as follows. 0.5 μM peptide substrate and 120 μM βNAD^+ were incubated with 10 nM SIRT1 for 25 minutes at 25° C. in a reaction buffer (50 mM HEPES pH 7.5, […], 1 mM DTT, 0.05% BSA). The SIRT1 protein was obtained by cloning the SirT1 gene into a T7-promoter containing vector, which was then expressed in BL21(DE3) bacterial cells and purified as described in further detail below. Test compound was added at varying concentrations to this reaction mixture and the resulting reactions were monitored. After the 25 minute incubation with SIRT1, 10 μL of 10% formic acid was added to stop the reaction. The resulting reactions were sealed and frozen for later mass spec analysis. The relative SIRT1 activity was then determined by measuring the amount of O-acetyl-ADP-ribose (OAADPR) formed (or, alternatively, the amount of deacetylated Trp peptide generated) by the NAD-dependent sirtuin deacetylation reaction in the presence of varying concentrations of the test compound versus control reactions lacking the test compound. The degree to which the test agent activated deacetylation by SIRT1 was expressed as EC1.5 (i.e., the concentration of compound required to increase SIRT1 activity by 50% over the control lacking test compound), and Percent Maximum Activation (i.e., the maximum activity relative to control (100%) obtained for the test compound).
A control for inhibition of sirtuin activity was conducted by adding 1 μL of 500 mM nicotinamide as a negative control at the start of the reaction (e.g., permits determination of maximum sirtuin inhibition). A control for activation of sirtuin activity was conducted using 10 nM of sirtuin protein, with 1 μL of DMSO in place of compound, to determine the amount of deacetylation of the substrate at a given time point within the linear range of the assay. This time point was the same as that used for test compounds and, within the linear range, the endpoint represents a change in velocity.
For the above assay, SIRT1 protein was expressed and purified as follows. The SirT1 gene was cloned into a T7-promoter containing vector and transformed into BL21(DE3). The protein was expressed by induction with 1 mM IPTG as an N-terminal His-tag fusion protein at 18° C. overnight and harvested at 30,000×g. Cells were lysed with lysozyme in lysis buffer (50 mM Tris-HCl, 2 mM Tris[2-carboxyethyl] phosphine (TCEP), 10 μM ZnCl2, 200 mM NaCl) and further treated with sonication for 10 min for complete lysis. The protein was purified over a Ni-NTA column (Amersham) and fractions containing pure protein were pooled, concentrated and run over a sizing column (Sephadex S200 26/60 global). The peak containing soluble protein was collected and run on an Ion-exchange column (MonoQ). Gradient elution (200 mM-500 mM NaCl) yielded pure protein. This protein was concentrated and dialyzed against dialysis buffer (20 mM Tris-HCl, 2 mM TCEP) overnight. The protein was aliquoted and frozen at −80° C. until further use.
Sirtuin-modulating compounds of Formula (I) that activated SIRT1 were identified using the assay described above and are shown below in Table 1. […]

SMILES | Emax | TRP Activity (EC1.5, concentration of compound required to increase SIRT1 activity by 50% over control) | TRP MAX RESP (percent maximum fold activation relative to control = 100%) | TRP Activity (EC1.5, concentration of compound required to increase SIRT1 activity by 50% over control) (hydrochloride)
O=C(Nc1ccccn1)N1c2nc(N3CCC(C(F)(F)F)C3)ccc2N2CCC[C@H]1C2 (single isomer, unassigned) [Example 8] | ≥ 150% | B (EC1.5 1-25 μM) |  | 
O=C(Nc1ccccn1)N1c2nc(N3CCCC(C(F)(F)F)C3)ccc2N2CCC[C@H]1C2 (single isomer, unassigned) [Example 11] | ≥ 150% | A (EC1.5<1 μM) |  | 
O=C(Nc1ncccn1)N1c2nc(N3CCCC(C(F)(F)F)C3)ccc2N2CCC[C@H]1C2 (single isomer, unassigned) [Example 18] | ≥ 150% | A (EC1.5<1 μM) |  | 
O=C(Nc1ncccn1)N1c2nc(N3CCCC(C(F)(F)F)C3)ccc2N2CCC[C@H]1C2 (single isomer, unassigned) [Example 22] |  | A (EC1.5<1 μM) |  | 
O=C(Nc1ccccn1)N1c2nc(N3CCCC(C(F)(F)F)C3)ccc2N2CCC[C@H]1C2 (single isomer, unassigned) [Example 23] |  | B (EC1.5 1-25 μM) | A (Fold activation≥150%) | 
O=C(Nc1cccnc1)N1c2nc(N3CCCC(C(F)(F)F)C3)ccc2N2CCC[C@H]1C2 (single isomer, unassigned) [Example 25] | ≥ 150% | A (EC1.5<1 μM) |  | 
O=C(Nc1cccnc1)N1c2nc(N3CCCC(C(F)(F)F)C3)ccc2N2CCC[C@H]1C2 (single isomer, unassigned) [Example 28] |  | A (EC1.5<1 μM) |  | 
Cc1ccc2c(NC(=O)N3c4nc(C(=O)NC5CC5(F)F)ccc4N4CCC[C@H]3C4)n[nH]c2n1 (single isomer, unassigned) [Example 48] | ≥ 150% | A (EC1.5<1 μM) |  | 
Cc1ccc2c(NC(=O)N3c4nc(C(=O)NC5CC5(F)F)ccc4N4CCC[C@H]3C4)n[nH]c2n1 (single isomer, unassigned) [Example 53] |  | A (EC1.5<1 μM) |  | 
O=C(Nc1ccccn1)N1c2nc(N3CCC[C@H]3C(F)(F)F)ccc2N2CCC[C@H]1C2 [Example 1, (9S)-N-(pyridin-2-yl)-2-((S)-2-(trifluoromethyl)pyrrolidin-1-yl)-8,9-dihydro-6H-5,9-methanopyrido[2,3-b][1,4]diazocine-10(7H)-carboxamide] | ≥ 150% | B (EC1.5 1-25 μM) |  | 

Second part, the molecule after the results:

Emax | TRP Activity (EC1.5, concentration of compound required to increase SIRT1 activity by 50% over control) | TRP MAX RESP (percent maximum fold activation relative to control = 100%) | TRP Activity (EC1.5, concentration of compound required to increase SIRT1 activity by 50% over control) (hydrochloride) | SMILES
≥ 150% | A (EC1.5<1 μM) |  |  | O=C(Nc1ccc(F)cn1)N1c2nc(N3CCCC(C(F)(F)F)C3)ccc2N2CCC[C@H]1C2 (single isomer, unassigned) [Example 24]
≥ 150% | A (EC1.5<1 μM) |  |  | O=C(Nc1cnccn1)N1c2nc(N3CCC[C@H](C(F)(F)F)C3)ccc2N2CCC[C@H]1C2 (single isomer, unassigned) [Example 27]
 | B (EC1.5 1-25 μM) | A (Fold activation≥150%) |  | O=C(Nc1ccc(F)cn1)N1c2nc(N3CCCC(C(F)(F)F)C3)ccc2N2CCC[C@H]1C2 (single isomer, unassigned) [Example 29]
≥ 150% | A (EC1.5<1 μM) |  |  | O=C(Nc1cnccn1)N1c2nc(N3CCCC(C(F)(F)F)C3)ccc2N2CCC[C@H]1C2 (single isomer, unassigned) [Example 30]
 |  |  | A (EC1.5<1 μM) | O=C(Nc1ccccn1)N1c2nc(N3CCC(C(F)(F)F)C3)ccc2N2CCC[C@H]1C2 (single isomer, unassigned) [Example 31, hydrochloride]
≥ 150% | B (EC1.5 1-25 μM) |  |  | Cc1ccc2c(NC(=O)N3c4nc(C(=O)NC(CO)C(F)(F)F)ccc4N4CCC[C@H]3C4)n[nH]c2n1 (single isomer, unassigned) [Example 45]
 | A (EC1.5<1 μM) | A (Fold activation≥150%) |  | Cc1ccc2c(NC(=O)N3c4nc(C(=O)NC(CO)C(F)(F)F)ccc4N4CCC[C@H]3C4)n[nH]c2n1 (single isomer, unassigned) [Example 46]
≥ 150% | A (EC1.5<1 μM) |  |  | O=C(NC1CC1(F)F)c1ccc2c(n1)N(C(=O)Nc1cc(OC[C@H](O)CO)ccn1)[C@H]1CCCN2C1 (single isomer, unassigned) [Example 50]
 | A (EC1.5<1 μM) |  |  | O=C(NC1CC1(F)F)c1ccc2c(n1)N(C(=O)Nc1cc(OC[C@H](O)CO)ccn1)[C@H]1CCCN2C1 (single isomer, unassigned) [Example 52]
≤ 150% |  |  |  | O=C(Nc1ccc(F)cn1)c1cc2c(nc1N1CCCC(C(F)(F)F)C1)N[C@H]1CCCN2C1 (single isomer, unassigned) [Example 58]
≤ 150% |  |  |  | O=C(Nc1cnccn1)c1cc2c(nc1N1CCCC(C(F)(F)F)C1)N[C@H]1CCCN2C1 (single isomer, unassigned) [Example 59]
≤ 150% |  |  |  | O=C(Nc1cccnc1)c1cc2c(nc1N1CCCC(C(F)(F)F)C1)N[C@H]1CCCN2C1 (single isomer, unassigned) [Example 60]
≥ 150% | A (EC1.5<1 μM) |  |  | O=C(Nc1cncc(OCC(O)CO)n1)N1c2nc(-c3cccc(C(F)(F)F)c3)c(Cl)cc2N2CCC[C@H]1C2 (stereo in doubt) [Example 67, (9S)-3-chloro-N-(6-((R)-2,3-dihydroxypropoxy)pyrazin-2-yl)-2-(3-(trifluoromethyl)phenyl)-8,9-dihydro-6H-5,9-methanopyrido[2,3-b][1,4]diazocine-10(7H)-carboxamide]
